Drawing on PubChem BioAssay (NCI), this text covers GI50 and TGI for eight molecules.

Among the test systems are A498 renal; HT29 colon; SW-620 colon; SF-539 CNS; OVCAR-8 ovarian; NCI-H23 lung; UO-31 renal; NCI-H522 lung; HCC-2998 colon; PC-3 prostate.
Holding throughout (assay): NCI tumour cell line growth inhibition, 48 h

The structures appear in SMILES notation.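 In this assay, cells in 96-well plates receive the compound at five concentrations for 48 hours. Endpoints are linearly interpolated between the surrounding concentrations. The concentration for 50% growth inhibition is given as GI50. TGI marks complete inhibition of growth.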

Turning to `Cc1nn2c(/C=C3\C(=O)Nc4ccccc43)c(C)nc2s1`, the GI50 was 31.3 µM in the test on A498 renal; 5.32 µM in the test with HT29 colon; 8.87 µM in the test with SW-620 colon; 49.8 µM in the test with SF-539 CNS; 77.8 µM in the test on OVCAR-8 ovarian; 35.4 µM in the test on NCI-H23 lung. For the same molecule, the GI50 in the test with UO-31 renal was 70 µM; in the test on NCI-H522 lung, 18.5 µM; in the test with HCC-2998 colon, 13.7 µM; in the test with PC-3 prostate, 29.5 µM. Besides, the TGI in the test on A498 renal, in the test on HT29 colon, with SW-620 colon, in the test on SF-539 CNS, in the test with OVCAR-8 ovarian and in the test on NCI-H23 lung was greater than 100 µM throughout. Moreover, the TGI with UO-31 renal, in the test on NCI-H522 lung, in the test with HCC-2998 colon and in the test with PC-3 prostate was greater than 100 µM in each case.

Turning to `COc1cccc2ccc3c(c12)C(=O)OC31CCc2c(C)cccc21` (stereo unspecified), the TGI is 22.7 µM with A498 renal; greater than 31.6 µM with HT29 colon; greater than 46.4 µM in the test on SW-620 colon; greater than 100 µM with SF-539 CNS; greater than 46.4 µM with OVCAR-8 ovarian; greater than 46.4 µM in the test on NCI-H23 lung. Also, the TGI in the test with UO-31 renal was 26.3 µM; in the test with NCI-H522 lung, greater than 31.6 µM; in the test with HCC-2998 colon, greater than 46.4 µM; in the test with PC-3 prostate it was greater than 100 µM.

`C(#Cc1ccccc1C#Cc1ccccn1)c1ccccn1`: the GI50 is 18 µM in the test on A498 renal; 30.3 µM with HT29 colon; 21.2 µM with SW-620 colon; 21.3 µM in the test with SF-539 CNS; 17.8 µM in the test on OVCAR-8 ovarian; 19 µM in the test on NCI-H23 lung. Also, the GI50 is 16.4 µM with UO-31 renal, 16.3 µM with NCI-H522 lung, 4.77 µM with HCC-2998 colon and 13.5 µM in the test with PC-3 prostate. Besides, the TGI is 34.6 µM in the test on A498 renal; greater than 100 µM in the test with HT29 colon; 56.7 µM with SW-620 colon; 40.2 µM with SF-539 CNS; 40.1 µM in the test with OVCAR-8 ovarian; 46.4 µM in the test with NCI-H23 lung. Moreover, the TGI was determined as 35.3 µM in the test with UO-31 renal, 36.3 µM in the test with NCI-H522 lung, 14.5 µM in the test on HCC-2998 colon and 30.2 µM in the test with PC-3 prostate.

Take `C=C1C[C@@H]2[C@H](CC[C@]3(C)C(=O)CC[C@@H]23)[C@@]2(C)C=CC(=O)C=C12`: the GI50 in the test with A498 renal is greater than 50.8 µM; in the test on HT29 colon, 37.1 µM; in the test with SW-620 colon, 34.7 µM; in the test on SF-539 CNS, 25.2 µM; in the test on OVCAR-8 ovarian, 6.93 µM; in the test on NCI-H23 lung, 16.5 µM. The GI50 in the test on UO-31 renal was 22 µM; with NCI-H522 lung, 8.79 µM; with HCC-2998 colon, 18.1 µM; in the test with PC-3 prostate, 66.9 µM. For the same molecule, the TGI is greater than 90.3 µM in the test on A498 renal; greater than 100 µM in the test on HT29 colon; greater than 100 µM in the test with SW-620 colon; 74.4 µM in the test with SF-539 CNS; greater than 24 µM with OVCAR-8 ovarian; 44.3 µM in the test with NCI-H23 lung. Moreover, the TGI in the test on UO-31 renal was greater than 56.5 µM; in the test with NCI-H522 lung, greater than 38.8 µM; with HCC-2998 colon, 33.5 µM; in the test on PC-3 prostate, greater than 100 µM.

Turning to `Cc1ccc(S(=O)(=O)c2ccsc2N)cc1`, the GI50 with A498 renal was 40.7 µM; in the test with HT29 colon it was greater than 100 µM; in the test with SW-620 colon, greater than 100 µM; in the test with SF-539 CNS it was greater than 100 µM; in the test with OVCAR-8 ovarian, greater than 100 µM; with NCI-H23 lung, greater than 100 µM. The GI50 with UO-31 renal was 47.2 µM; in the test with NCI-H522 lung, greater than 100 µM; in the test with HCC-2998 colon it was greater than 100 µM; in the test on PC-3 prostate it was greater than 100 µM. Moreover, the TGI in the test on A498 renal, in the test on HT29 colon, with SW-620 colon, in the test on SF-539 CNS, in the test on OVCAR-8 ovarian and with NCI-H23 lung was greater than 100 µM in each case. Besides, the TGI in the test with UO-31 renal, with NCI-H522 lung, in the test on HCC-2998 colon and in the test on PC-3 prostate was greater than 100 µM throughout.

As to `CC(C)=CCC/C(C)=C/[C@H]1OC(=O)CC12C[C@H](O)C=CC2=O` (stereo partly specified), the GI50 with A498 renal is 1.47 µM; with HT29 colon, 0.469 µM; in the test on SW-620 colon, 0.446 µM; in the test with SF-539 CNS it was 0.421 µM; in the test with OVCAR-8 ovarian, 0.791 µM; with NCI-H23 lung it was 0.308 µM. The GI50 with UO-31 renal was 1.96 µM; in the test with NCI-H522 lung, 1.19 µM; in the test with HCC-2998 colon it was 0.221 µM; in the test on PC-3 prostate it was 0.384 µM. Moreover, the TGI is 3.09 µM in the test on A498 renal; greater than 100 µM in the test with SW-620 colon; 1.26 µM with SF-539 CNS; 1.04 µM with NCI-H23 lung; 0.448 µM with HCC-2998 colon; 1.42 µM in the test with PC-3 prostate.

As for `CC(=O)Nc1cc2cc(NS(=O)(=O)c3cc(C(F)(F)F)cc(C(F)(F)F)c3)ccc2oc1=O`, the TGI is greater than 100 µM in the test on A498 renal; greater than 100 µM with HT29 colon; greater than 100 µM in the test with SW-620 colon; 96.6 µM with SF-539 CNS; greater than 100 µM in the test with OVCAR-8 ovarian; greater than 100 µM in the test with NCI-H23 lung. In addition, the TGI in the test on UO-31 renal, in the test with NCI-H522 lung, in the test with HCC-2998 colon and in the test with PC-3 prostate was greater than 100 µM each time.

Turning to `Cc1[nH]n(-c2ccccc2)c(=O)c1C(=O)c1ccccc1`, the GI50 in the test with A498 renal is greater than 6.04 µM; with HT29 colon it was greater than 25 µM; with SW-620 colon, greater than 25 µM; in the test on SF-539 CNS, greater than 25 µM; in the test on OVCAR-8 ovarian, greater than 25 µM; in the test with NCI-H23 lung, greater than 25 µM. Also, the GI50 in the test on UO-31 renal was greater than 25 µM; in the test with NCI-H522 lung it was greater than 25 µM; with HCC-2998 colon it was greater than 25 µM; in the test on PC-3 prostate, 19.7 µM. For the same molecule, the TGI in the test on A498 renal, in the test with HT29 colon, in the test on SW-620 colon, in the test with SF-539 CNS, with OVCAR-8 ovarian and in the test with NCI-H23 lung was greater than 25 µM throughout. Besides, the TGI in the test on UO-31 renal, in the test on NCI-H522 lung, in the test with HCC-2998 colon and in the test with PC-3 prostate was greater than 25 µM in each case.
